Source: patent US11964988B2, “Fused heterocyclic compounds as RET kinase inhibitors” (ARRAY BIOPHARMA INC., priority 2018, dated 2024)
Residue numbers refer to the chain shown, from its start.

Columns and labels:
RET kinase V804M = RET kinase V804M (Homo sapiens, UniProt P07949, V804M); assay: RET Enzyme Assay (CisBio HTRF KinEASE-TK), V804M; type: biochemical; settings: read-out: RET V804M Enz FRET IC50
Experimental: The potency of compounds inhibiting several different RET kinase forms (Wild Type, V804M, G810R, & G810S) were determined using CisBio's HTRF® KinEASE™-TK assay technology. […] After a 1 hour incubation at 22° C., the extent of reaction was determined using a PerkinElmer EnVision multimode plate reader via HTRF dual wavelength detection, and the percent of control (POC) was calculated using a ratiometric emission factor. One hundred POC was determined using DMSO only samples (no compound present), and 0 POC was determined using pre-quenched control reactions.

[1] = molecular target: T1, HEK-293 cells expressing a Kif5b-RET fusion protein (Homo sapiens, UniProt P07949); assay: RET Cell Assay (phospho-RET Tyr1062); type: cell-based; settings: HEK-293 Kif5b-RET, 1 hour incubation, phospho-RET normalized to GAPDH; read-out: KIF5B-RET pTYR1062 Cell IC50
T1 construct: KIF5B (N-terminal portion incl. coiled-coil); expressed in transfected cells; host or cells: HEK-293; the other entry of the earlier key: KIF5B (P33176, Kinesin-1 heavy chain)
T1 sequence (P07949 713-1063 limits assumed): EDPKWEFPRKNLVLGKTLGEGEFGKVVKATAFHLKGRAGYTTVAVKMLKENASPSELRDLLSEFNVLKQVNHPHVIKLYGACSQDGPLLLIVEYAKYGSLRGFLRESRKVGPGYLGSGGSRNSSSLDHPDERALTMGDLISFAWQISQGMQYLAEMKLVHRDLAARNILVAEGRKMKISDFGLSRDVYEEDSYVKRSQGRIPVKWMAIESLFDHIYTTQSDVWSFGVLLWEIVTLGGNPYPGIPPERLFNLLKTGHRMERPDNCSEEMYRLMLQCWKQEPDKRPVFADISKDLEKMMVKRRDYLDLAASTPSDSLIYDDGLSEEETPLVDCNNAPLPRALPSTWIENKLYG
Outline: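 Kif5b-RET HEK-293 cells treated 1 hour with compound in DMEM (0.5% DMSO final), then fixed and immunostained for phospho-RET Tyr1062, normalized to GAPDH by infrared fluorescence. IC50 where the 4-parameter logistic fit of POC crosses 50.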

[2] = molecular target: T2, HEK-293 cells expressing a G810R mutant RET Kif5b-RET fusion protein (Homo sapiens, UniProt P07949, G810R); assay: RET G810R Mutant Cell Assay (phospho-RET Tyr1062); type: cell-based; settings: HEK-293 Kif5b-RET G810R, 1 hour incubation, phospho-RET normalized to GAPDH
T2 construct: KIF5B (N-terminal portion incl. coiled-coil); expressed in transfected cells; host or cells: HEK-293; the other entry of the earlier key: KIF5B (P33176, Kinesin-1 heavy chain)
T2 sequence (P07949 713-1063 G810R limits assumed): T1 sequence (P07949 713-1063 limits assumed) with G98R
Outline: (§1)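 Engineered HEK-293 cells were treated 1 h with compound in DMEM, 0.5% DMSO final, then fixed, permeabilized and immunostained for phospho-RET Tyr1062 and GAPDH. In-cell fluorescence pRET signal was normalized to GAPDH; IC50 taken from a 4-parameter logistic fit of percent of control at 50 POC.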

[3] = molecular target: T3, HEK-293 cells expressing a G810S mutant RET Kif5b-RET fusion protein (Homo sapiens, UniProt P07949, G810S); assay: RET G810S Mutant Cell Assay (phospho-RET Tyr1062); type: cell-based; settings: HEK-293 Kif5b-RET G810S, 1 hour incubation, phospho-RET normalized to GAPDH
T3 construct: KIF5B (N-terminal portion incl. coiled-coil); expressed in transfected cells; host or cells: HEK-293
T3 sequence (P07949 713-1063 G810S limits assumed): T1 sequence (P07949 713-1063 limits assumed) with G98S
Outline: as §1

RET kinase Wild Type = RET kinase Wild Type (Homo sapiens, UniProt P07949); assay: biochemical;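 note: HTRF kinase activity assay on RET enzyme, 1 h reaction at 22 °C, dual-wavelength readout as percent of control, DMSO-only wells as 100%, pre-quenched reactions as 0%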
G810R mutant RET kinase = G810R mutant RET kinase (Homo sapiens, UniProt P07949, G810R); assay: biochemical;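 note: HTRF KinEASE-TK enzymatic assay with 1 nM recombinant RET G810R, 1 h at 22 °C, dual-wavelength ratiometric readout, 100% control without compound, 0% from pre-quenched reactions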
G810S mutant RET kinase = G810S mutant RET kinase (Homo sapiens, UniProt P07949, G810S); assay: biochemical;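 note: HTRF KinEASE-TK kinase assay with recombinant enzyme, 1 h at 22 °C, dual-wavelength ratiometric read-out, percent of control (DMSO-only = 100, pre-quenched reaction = 0)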
G810S mutant RET kinase, sequence (P07949 29-1114 G810S): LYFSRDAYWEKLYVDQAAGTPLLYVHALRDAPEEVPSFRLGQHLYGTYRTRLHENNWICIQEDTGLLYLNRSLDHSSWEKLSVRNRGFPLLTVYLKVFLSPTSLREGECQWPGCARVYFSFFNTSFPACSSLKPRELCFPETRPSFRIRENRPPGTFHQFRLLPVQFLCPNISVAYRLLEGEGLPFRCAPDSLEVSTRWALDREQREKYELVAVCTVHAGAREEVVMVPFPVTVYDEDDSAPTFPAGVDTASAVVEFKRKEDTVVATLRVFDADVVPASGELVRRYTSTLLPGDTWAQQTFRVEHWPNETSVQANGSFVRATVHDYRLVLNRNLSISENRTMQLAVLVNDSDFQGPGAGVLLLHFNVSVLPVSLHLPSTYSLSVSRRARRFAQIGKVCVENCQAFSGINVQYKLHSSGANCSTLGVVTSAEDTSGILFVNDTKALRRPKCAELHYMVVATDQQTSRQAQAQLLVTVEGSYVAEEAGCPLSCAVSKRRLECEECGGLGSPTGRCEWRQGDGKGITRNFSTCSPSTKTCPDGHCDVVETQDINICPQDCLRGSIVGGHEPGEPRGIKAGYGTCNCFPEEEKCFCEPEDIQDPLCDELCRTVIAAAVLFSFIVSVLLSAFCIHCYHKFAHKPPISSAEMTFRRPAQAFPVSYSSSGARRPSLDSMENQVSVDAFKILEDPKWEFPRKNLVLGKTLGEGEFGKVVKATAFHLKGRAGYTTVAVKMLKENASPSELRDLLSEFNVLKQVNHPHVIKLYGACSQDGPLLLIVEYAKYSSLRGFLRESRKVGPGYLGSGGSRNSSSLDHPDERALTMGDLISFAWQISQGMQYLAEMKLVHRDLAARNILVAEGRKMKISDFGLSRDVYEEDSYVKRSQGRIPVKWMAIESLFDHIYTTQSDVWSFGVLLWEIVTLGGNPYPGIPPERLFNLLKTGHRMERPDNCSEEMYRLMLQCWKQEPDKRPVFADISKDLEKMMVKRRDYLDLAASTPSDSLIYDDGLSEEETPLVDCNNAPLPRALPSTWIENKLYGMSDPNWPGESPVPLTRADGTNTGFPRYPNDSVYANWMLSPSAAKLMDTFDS

RET kinase Wild Type, sequence (P07949 29-1114): as the sequence (P07949 29-1114 G810S) above, with S782G counted along it
RET kinase V804M, sequence (P07949 29-1114 V804M): as the sequence (P07949 29-1114 G810S) above, with V776M, S782G counted along it
G810R mutant RET kinase, sequence (P07949 29-1114 G810R): as the sequence (P07949 29-1114 G810S) above, with S782R counted along it

IC50 (RET kinase V804M) [µM] | IC50 [1] [µM] | IC50 [2] [µM] | IC50 [3] [µM] | IC50 (RET kinase Wild Type) [µM] | IC50 (G810R mutant RET kinase) [µM] | IC50 (G810S mutant RET kinase) [µM] | Structure (SMILES)
0.099 | 0.125 | 0.206 | 0.108 | 0.131 | 0.08 | 0.075 | Nc1ncnc2c1c1c(n2-c2ccccc2)CCC(O)c2c-1noc2C1CC1 (stereo not drawn) [Example 118, 11-Amino-3-cyclopropyl-7-phenyl-4,5,6,7-tetrahydroisoxazolo[4″,3″:6′,7′]cyclohepta[1′,2′:4,5]pyrrolo[2,3-d]pyrimidin-4-ol 2,2,2-trifluoroacetate]
0.015 | 0.004 | 0.04 | 0.018 | 0.012 | 0.084 | 0.046 | CC1(n2c3c(c4c(N)ncnc42)-c2noc(C4CC4)c2[C@H](O)CC3)CC1 [Example 150, (R)-11-Amino-3-cyclopropyl-7-(1-methylcyclopropyl)-4,5,6,7-tetrahydroisoxazolo[4″,3″:6′,7′]cyclohepta[1′,2′:4,5]pyrrolo[2,3-d]pyrimidin-4-ol]
0.182 | 0.047 | 0.119 | 0.09 | 0.039 | 0.169 | 0.076 | CC(C)n1c2c(c3c(N)ncnc31)-c1noc(C3CC3)c1[C@@H](O)[C@H](C)C2 (single isomer, unassigned) [Example 64]
5.49 | 0.011 | 0.076 | 0.039 | 0.019 | 0.094 | 0.052 | Cc1ccc2c(c1)cc1n2C(=O)NCc2c-1c1c(N)ncnc1n2C(C)C [Example 81, 1-amino-5-isopropyl-12-methyl-6,7-dihydropyrimido[5″,4″:4′,5′]pyrrolo[2′,3′: 5,6][1,3]diazepino[1,7-a]indol-8(5H)-one]
6.26 | 0.05 | 0.053 | 0.044 | 0.062 | 0.288 | 0.297 | CC(C)n1c2c(c3c(N)ncnc31)-c1cc3ccc(C(=O)Nc4ccn(CCN5CCOCC5)n4)cc3n1CCC2 [Example 88, 1-amino-5-isopropyl-N-(1-(2-morpholinoethyl)-1H-pyrazol-3-yl)-5,6,7,8-tetrahydropyrimido[5″,4″:4′,5′]pyrrolo[3′,2′: 3,4]azepino[1,2-a]indole-11-carboxamide]
0.08 | 0.019 | 0.044 | 0.033 | 0.024 | 0.089 | 0.049 | Nc1ncnc2c1c1c(n2C2CCCC2)CCC(O)c2c-1noc2C1CC1 (single isomer, unassigned) [Example 124]
 | 0.085 | 0.142 | 0.116 | 0.027 | 0.187 | 0.393 | COCCn1ccc(NC(=O)c2ccc3cc4n(c3c2)CCCc2c-4c3c(N)ncnc3n2C(C)C)n1 [Example 96, 1-amino-5-isopropyl-N-(1-(2-methoxyethyl)-1H-pyrazol-3-yl)-5,6,7,8-tetrahydropyrimido[5″,4″:4′,5′]pyrrolo[3′,2′: 3,4]azepino[1,2-a]indole-11-carboxamide]
0.044 | 0.028 | 0.087 | 0.083 | 0.009 | 0.031 |  | CC(C)n1c2c(c3c(N)ncnc31)-c1noc(C3CC3)c1S(=O)(=O)NC2 [Example 21, 11-amino-3-cyclopropyl-7-isopropyl-6,7-dihydro-5H-isoxazolo[3,4-f]pyrimido[5′,4′:4,5]pyrrolo[2,3-d][1,2]thiazepine 4,4-dioxide 2,2,2-trifluoroacetate]
 | 0.143 | 0.845 | 0.57 | 0.117 | 0.118 | 0.292 | CC(C)n1c2c(c3c(N)ncnc31)-c1cc3ccc(C#N)cc3n1C(=O)NC2 [Example 76, 1-amino-5-isopropyl-8-oxo-5,6,7,8-tetrahydropyrimido[5″,4″:4′,5′]pyrrolo[2′,3′:5,6][1,3]diazepino[1,7-a]indole-11-carbonitrile]
